Laboratory results as given in patent US20250230193A1, “CYCLIC COMPOUND HAVING SELECTIVE KRAS INHIBITORY EFFECT ON HRAS AND NRAS” (CHUGAI SEIYAKU KABUSHIKI KAISHA, priority 2022, published 2025).

Assays:
[1] = biological target: GDP-bound NRAS wild-type protein (Homo sapiens, UniProt P01111); assay: Binding to NRAS by surface plasmon resonance (SPR), Single Cycle Kinetics; details: SPR, GDP-bound NRAS wild-type vs GDP-bound KRAS wild-type
[2] = biological target: GDP-bound HRAS wild-type protein (Homo sapiens, UniProt P01112); assay: Binding to HRAS by surface plasmon resonance (SPR), Single Cycle Kinetics; details: SPR, GDP-bound HRAS wild-type vs GDP-bound KRAS wild-type
GDP-bound HRAS wild-type protein, sequence (P01112 whole entry): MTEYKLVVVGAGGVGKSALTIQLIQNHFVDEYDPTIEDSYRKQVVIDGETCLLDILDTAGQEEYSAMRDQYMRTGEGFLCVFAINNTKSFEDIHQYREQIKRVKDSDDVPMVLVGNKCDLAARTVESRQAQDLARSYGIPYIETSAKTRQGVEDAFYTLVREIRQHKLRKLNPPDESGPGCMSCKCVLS

GDP-bound NRAS wild-type protein, sequence (P01111 whole entry): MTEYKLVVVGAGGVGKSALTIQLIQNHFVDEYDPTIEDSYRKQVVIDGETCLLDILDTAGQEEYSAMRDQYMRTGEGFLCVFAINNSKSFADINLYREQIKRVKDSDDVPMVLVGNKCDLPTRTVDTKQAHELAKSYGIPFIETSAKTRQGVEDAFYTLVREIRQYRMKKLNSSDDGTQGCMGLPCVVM

Row | SMILES | NRAS/KRAS (ratio of KD value with respect to NRAS to KD value with respect to KRAS) [1] | HRAS/KRAS (ratio of KD value with respect to HRAS to KD value with respect to KRAS) [2]
1 | CCC[C@H]1C(=O)N[C@@H]([C@@H](C)CC)C(=O)N2CCC[C@H]2C(=O)N(C)[C@H]2C/C=C\CCN(C2=O)[C@@H](CC2CCCCC2)C(=O)N(C)CC(=O)N[C@@H](CCc2ccc(C(F)(F)F)c(OC)c2)C(=O)N2C[C@H](OCC)C[C@H]2C(=O)N(C)C2(CCC2)C(=O)N(C)[C@@H](C2CCCC2)C(=O)N(C)[C@H](C(=O)N(C)C)CC(=O)N1C [PP2344] | A (a compound having 10 or more and less than 20 is denoted as A) | A (a compound having 10 or more and less than 20 is denoted as A)
2 | CCC[C@H]1C(=O)N[C@@H]([C@@H](C)CC)C(=O)N(C)CC(=O)N(C)[C@H]2C/C=C\CCN(C2=O)[C@@H](CC2CCC(F)(F)CC2)C(=O)N(C)CC(=O)N[C@@H](CCc2ccc(C(F)(F)F)c(OC)c2)C(=O)N2C[C@H](OCC)C[C@H]2C(=O)N(C)C2(CCC2)C(=O)N(C)[C@@H](C(CC)CC)C(=O)N(C)[C@H](C(=O)N(C)C)CC(=O)N1C [PP2345] | A (a compound having 10 or more and less than 20 is denoted as A) | A (a compound having 10 or more and less than 20 is denoted as A)
3 | CCOC[C@H]1C(=O)N[C@@H]([C@@H](C)CC)C(=O)N(C)CC(=O)N(C)[C@H]2C/C=C\CCN(C2=O)[C@@H](CC2CCC(F)(F)CC2)C(=O)N(C)CC(=O)N[C@@H](CCc2ccc(C(F)(F)F)c(OC)c2)C(=O)N2C[C@H](OCC)C[C@H]2C(=O)N(C)C2(CCC2)C(=O)N(C)[C@@H](C(CC)CC)C(=O)N(C)[C@H](C(=O)N(C)C)CC(=O)N1C [PP2347] | A (a compound having 10 or more and less than 20 is denoted as A) | A (a compound having 10 or more and less than 20 is denoted as A)
4 | CCC[C@H]1C(=O)N[C@@H]([C@@H](C)CC)C(=O)N(C)CC(=O)N(C)[C@H]2C/C=C\CCN(C2=O)[C@@H](CC2CCC(F)(F)CC2)C(=O)N(C)CC(=O)N[C@@H](CCc2ccc(C(F)(F)F)c(OC)c2)C(=O)N2C[C@H](OCC)C[C@H]2C(=O)N(C)C2(CCC2)C(=O)N(C)[C@@H](C2CCCC2)C(=O)N(C)[C@H](C(=O)N(C)C)CC(=O)N1C [PP2348] | A (a compound having 10 or more and less than 20 is denoted as A) | A (a compound having 10 or more and less than 20 is denoted as A)
5 | CCC[C@H]1C(=O)N[C@@H]([C@@H](C)CC)C(=O)N(C2CC2)CC(=O)N(C)[C@H]2C/C=C\CCN(C2=O)[C@@H](CC2CCC(F)(F)CC2)C(=O)N(C)CC(=O)N[C@@H](CCc2ccc(C(F)(F)F)c(OC)c2)C(=O)N2C[C@H](OCC)C[C@H]2C(=O)N(C)C2(CCC2)C(=O)N(C)[C@@H](C(CC)CC)C(=O)N(C)[C@H](C(=O)N(C)C)CC(=O)N1C [PP2349] | A (a compound having 10 or more and less than 20 is denoted as A) | A (a compound having 10 or more and less than 20 is denoted as A)
6 | CCCOC[C@H]1C(=O)N[C@@H]([C@@H](C)CC)C(=O)N(C)CC(=O)N(C)[C@H]2C/C=C\CCN(C2=O)[C@@H](CC2CCC(F)(F)CC2)C(=O)N(C)CC(=O)N[C@@H](CCc2ccc(C(F)(F)F)c(OC)c2)C(=O)N2C[C@H](OCC)C[C@H]2C(=O)N(C)C2(CCC2)C(=O)N(C)[C@@H](C2CCCC2)C(=O)N(C)[C@H](C(=O)N(C)C)CC(=O)N1C [PP2350] | A (a compound having 10 or more and less than 20 is denoted as A) | A (a compound having 10 or more and less than 20 is denoted as A)
7 | CCOC[C@H]1C(=O)N[C@@H]([C@@H](C)CC)C(=O)N(C2CC2)CC(=O)N(C)[C@H]2C/C=C\CCN(C2=O)[C@@H](CC2CCC(F)(F)CC2)C(=O)N(C)CC(=O)N[C@@H](CCc2ccc(C(F)(F)F)c(OC)c2)C(=O)N2C[C@H](OCC)C[C@H]2C(=O)N(C)C2(CCC2)C(=O)N(C)[C@@H](C(CC)CC)C(=O)N(C)[C@H](C(=O)N(C)C)CC(=O)N1C [PP2351] | A (a compound having 10 or more and less than 20 is denoted as A) | A (a compound having 10 or more and less than 20 is denoted as A)
8 | CCC[C@H]1C(=O)N[C@@H]([C@@H](C)CC)C(=O)N(C2CC2)CC(=O)N(C)[C@H]2C/C=C\CCN(C2=O)[C@@H](CC2CCC(F)(F)CC2)C(=O)N(C)CC(=O)N[C@@H](CCc2ccc(C(F)(F)F)c(OC)c2)C(=O)N2C[C@H](OCC)C[C@H]2C(=O)N(C)C2(CCC2)C(=O)N(C)[C@@H](C2CCCC2)C(=O)N(C)[C@H](C(=O)N(C)C)CC(=O)N1C [PP2352] | A (a compound having 10 or more and less than 20 is denoted as A) | A (a compound having 10 or more and less than 20 is denoted as A)
9 | CCC[C@H]1C(=O)N[C@@H]([C@@H](C)CC)C(=O)N2CCC[C@H]2C(=O)N(C)[C@H]2C/C=C\CCN(C2=O)[C@@H](CC2CCC(F)(F)CC2)C(=O)N(C)CC(=O)N[C@@H](CCc2ccc(C(F)(F)F)c(OC)c2)C(=O)N2C[C@H](OCC)C[C@H]2C(=O)N(C)C2(CCC2)C(=O)N(C)[C@@H](C(CC)CC)C(=O)N(C)[C@H](C(=O)N(C)C)CC(=O)N1C [PP2353] | A (a compound having 10 or more and less than 20 is denoted as A) | A (a compound having 10 or more and less than 20 is denoted as A)
10 | CCCOC[C@H]1C(=O)N[C@@H]([C@@H](C)CC)C(=O)N(C2CC2)CC(=O)N(C)[C@H]2C/C=C\CCN(C2=O)[C@@H](CC2CCC(F)(F)CC2)C(=O)N(C)CC(=O)N[C@@H](CCc2ccc(C(F)(F)F)c(OC)c2)C(=O)N2C[C@H](OCC)C[C@H]2C(=O)N(C)C2(CCC2)C(=O)N(C)[C@@H](C2CCCC2)C(=O)N(C)[C@H](C(=O)N(C)C)CC(=O)N1C [PP2354] | A (a compound having 10 or more and less than 20 is denoted as A) | A (a compound having 10 or more and less than 20 is denoted as A)
11 | CCOC[C@H]1C(=O)N[C@@H]([C@@H](C)CC)C(=O)N2CCC[C@H]2C(=O)N(C)[C@H]2C/C=C\CCN(C2=O)[C@@H](CC2CCC(F)(F)CC2)C(=O)N(C)CC(=O)N[C@@H](CCc2ccc(C(F)(F)F)c(OC)c2)C(=O)N2C[C@H](OCC)C[C@H]2C(=O)N(C)C2(CCC2)C(=O)N(C)[C@@H](C(CC)CC)C(=O)N(C)[C@H](C(=O)N(C)C)CC(=O)N1C [PP2355] | AA (a compound having 20 or more is denoted as AA) | A (a compound having 10 or more and less than 20 is denoted as A)
12 | CCC[C@H]1C(=O)N[C@@H]([C@@H](C)CC)C(=O)N2CCC[C@H]2C(=O)N(C)[C@H]2C/C=C\CCN(C2=O)[C@@H](CC2CCC(F)(F)CC2)C(=O)N(C)CC(=O)N[C@@H](CCc2ccc(C(F)(F)F)c(OC)c2)C(=O)N2C[C@H](OCC)C[C@H]2C(=O)N(C)C2(CCC2)C(=O)N(C)[C@@H](C2CCCC2)C(=O)N(C)[C@H](C(=O)N(C)C)CC(=O)N1C [PP2356] | A (a compound having 10 or more and less than 20 is denoted as A) | A (a compound having 10 or more and less than 20 is denoted as A)
13 | CCCOC[C@H]1C(=O)N[C@@H]([C@@H](C)CC)C(=O)N2CCC[C@H]2C(=O)N(C)[C@H]2C/C=C\CCN(C2=O)[C@@H](CC2CCC(F)(F)CC2)C(=O)N(C)CC(=O)N[C@@H](CCc2ccc(C(F)(F)F)c(OC)c2)C(=O)N2C[C@H](OCC)C[C@H]2C(=O)N(C)C2(CCC2)C(=O)N(C)[C@@H](C2CCCC2)C(=O)N(C)[C@H](C(=O)N(C)C)CC(=O)N1C [PP2357] | A (a compound having 10 or more and less than 20 is denoted as A) | B (a compound having 3 or more and less than 10 is denoted as B)
14 | CCC[C@H]1C(=O)N[C@@H]([C@@H](C)CC)C(=O)N(C)CC(=O)N(C)[C@H]2C/C=C\CCN(C2=O)[C@@H](Cc2ccc(C(F)(F)F)cc2)C(=O)N(C)CC(=O)N[C@@H](CCc2ccc(C(F)(F)F)c(OC)c2)C(=O)N2C[C@@H](C)C[C@H]2C(=O)N(C)C2(CCC2)C(=O)N(C)[C@@H](C2CCCC2)C(=O)N(C)[C@H](C(=O)N(C)C)CC(=O)N1C [PP2358] | A (a compound having 10 or more and less than 20 is denoted as A) | B (a compound having 3 or more and less than 10 is denoted as B)
15 | CCOC[C@H]1C(=O)N[C@@H]([C@@H](C)CC)C(=O)N(C)CC(=O)N(C)[C@H]2C/C=C\CCN(C2=O)[C@@H](Cc2ccc(C(F)(F)F)cc2)C(=O)N(C)CC(=O)N[C@@H](CCc2ccc(C(F)(F)F)c(OC)c2)C(=O)N2C[C@@H](C)C[C@H]2C(=O)N(C)C2(CCC2)C(=O)N(C)[C@@H](C2CCCC2)C(=O)N(C)[C@H](C(=O)N(C)C)CC(=O)N1C [PP2359] | A (a compound having 10 or more and less than 20 is denoted as A) | B (a compound having 3 or more and less than 10 is denoted as B)
16 | CCC[C@H]1C(=O)N[C@@H]([C@@H](C)CC)C(=O)N(C2CC2)CC(=O)N(C)[C@H]2C/C=C\CCN(C2=O)[C@@H](Cc2ccc(C(F)(F)F)cc2)C(=O)N(C)CC(=O)N[C@@H](CCc2ccc(C(F)(F)F)c(OC)c2)C(=O)N2C[C@@H](C)C[C@H]2C(=O)N(C)C2(CCC2)C(=O)N(C)[C@@H](C2CCCC2)C(=O)N(C)[C@H](C(=O)N(C)C)CC(=O)N1C [PP2360] | A (a compound having 10 or more and less than 20 is denoted as A) | B (a compound having 3 or more and less than 10 is denoted as B)
